Reference: patent US6809110B2 (Hoffmann-La Roche Inc., priority 2002, dated 2004)

Columns and labels:
[1] = biological target: T1, PPARγ (Mus musculus, UniProt P37238); test: PPARγ radioligand binding assay (SPA, GST-PPARγ-LBD fusion protein); set-up: PPARγ (aa 174 to 476); details: SPA beads
T1 sequence (P37238 204-505): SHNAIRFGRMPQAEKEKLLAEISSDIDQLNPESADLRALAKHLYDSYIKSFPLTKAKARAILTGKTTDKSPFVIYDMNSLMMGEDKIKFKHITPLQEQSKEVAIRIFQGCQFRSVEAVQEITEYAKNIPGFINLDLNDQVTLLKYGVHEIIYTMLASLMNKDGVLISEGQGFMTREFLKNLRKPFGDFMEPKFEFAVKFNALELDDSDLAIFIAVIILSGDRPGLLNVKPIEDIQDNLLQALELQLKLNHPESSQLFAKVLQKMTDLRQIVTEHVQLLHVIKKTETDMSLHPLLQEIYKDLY
From the text: (§1) Full-length cDNA clones for human PPARα and mouse PPARγ were obtained by RT-PCR from human adipose and mouse liver cRNA, respectively, cloned into plasmid vectors and verified by DNA sequencing. (With respect to cloning of PPARα cDNA, see Sher, T. et al. “cDNA doning, chromosomel mapping and functional characterization of the human peroxisome proliferator activated receptor”, Biochemistry 32(21) 5598-5604 (1993); with respect to cloning of PPARγ2 cDNA, see Tontonoy P., et al. “mPPAR gamma 2: tissue-specific regulator of an adipocyte enhancer”, Genes Dev. 8(10) 1224-34 (1994).) Bacterial and mammalian expression vectors were constructed to produce glutathione-s-transferase (GST) and Gal4 DNA binding domain proteins fused to the ligand binding domains (LBD) of PPARγ (aa 174 to 476) and PPARα (aa 167 to 469). To accomplish this, the portions of the cloned sequences encoding the LBDs were amplified from the full-length clones by PCR and then subcloned into the plasmid vectors. Final clones were verified by DNA sequence analysis.
(§2) Induction, expression, and purification of GST-LBD fusion proteins were performed in E. coli strain BL21(pLysS) cells by standard methods (Ref: Current Protocols in Molecular Biology, Wiley Press, edited by Ausubel et al.).
(§3) PPARγ receptor binding was assayed in TKE50 (50 mM Tris-HCl, pH 8, 50 mM KCl, 2 mM EDTA, 0.1 mg/ml fatty acid-free BSA and 10 mM DTT). For each 96 well reaction an 140 ng equivalent of GST-PPARγ-LBD fusion protein was bound to 10 ug SPA beads (PharmaciaArnersham) in a final volume of 50 ul by shaking. The resulting slurry was incubated for 1 h at RT and centrifuged for 2 min at 1300 g. The supernatant containing unbound protein was removed and the semidry pellet containing the recptor-coated beads was resolved in 50 ul of TKE. For radioligand binding e.g. 10000 dpm 2(S)-(2-benzoyl-phenylamino)-3-{4-[1,1-ditritio-2-(5-methyl-2-phenyl-oxazol-4-yl)-ethoxy]-phenyl}-propionic acid in 50 ul were added, the reaction incubated at RT for 1 h and scintillation proximity counting performed. All binding assays were performed in 96 well plates and the amount of bound ligand measured on a Packard TopCount using OptiPlates (Packard). Nonspecific binding was determined in the presence of 10^−4 M unlabelled compound. Dose response curves were done in triplicates within a range of concentration from 10^−10 M to 10^−4 M.

[2] = biological target: T1, PPARγ; test: Luciferase transcriptional reporter gene assay, BHK21 cells transfected with PPARγ-LBD expression plasmid; type: cell-based; set-up: PPARγ (aa 174 to 476) and PPARα (aa 167 to 469); expressed in transfected cells; host or cells: BHK21 (ATCC CCL10); details: 24 hours incubation
From the text: as §1
(§4) Baby hamster kidney cells (BHK21 ATCC CCL10) were grown in DMEM medium containing 10% FBS at 37° C. in a 95%02:5%CO2 atmosphere. Cells were seeded in 6 well plates at a density of 10^5 Cells/well and then batch-transfected with either the pPA-PPARγ-LBD or pFA-PPARα-LBD expression plasmids plus a reporter plasmid and an expression plasmid encoding the secretable form of alkaline phosphatase (SEAP) as a normalization control. […] Six hours following transfection, the cells were harvested by trypsinization and seeded in 96 well plates at a density of 10^4 cells/well. After 24 hours to allow attachment of cells, the medium was removed and replaced with 100 ul of phenol red-free medium containing the test substances or control ligands (final DMSO concentration: 0.1%). Following incubation of the cells for 24 hours with substances, 50 ul of the supernatant was recovered and analyzed for SEAP activity (Roche Molecular Biochemicals). The remainder of the supernatant was discarded, 50 ul PBS was added per well followed by one volume of Luciferase Constant-Light Reagent (Roche Molecular Biochemicals) to lyse the cells and initiate the luciferase reaction. Luminescence for both SEAP and luciferase was measured in a Packard TopCount. Luciferase activity was normalized to the SEAP control and transcriptional activation in the presence of a test substance was expressed as fold-activation over cells incubated in the absence of the substance. EC50 values were calculated using the XLfit program (ID Business Solutions Ltd. UK).

[3] = biological target: T2, PPARα (Homo sapiens, UniProt Q07869); test: Luciferase transcriptional reporter gene assay, BHK21 cells transfected with pFA-PPARα-LBD; type: cell-based; set-up: PPARα (aa 167 to 469); details: 24 hours incubation
T2 sequence (Q07869 167-468 limits assumed): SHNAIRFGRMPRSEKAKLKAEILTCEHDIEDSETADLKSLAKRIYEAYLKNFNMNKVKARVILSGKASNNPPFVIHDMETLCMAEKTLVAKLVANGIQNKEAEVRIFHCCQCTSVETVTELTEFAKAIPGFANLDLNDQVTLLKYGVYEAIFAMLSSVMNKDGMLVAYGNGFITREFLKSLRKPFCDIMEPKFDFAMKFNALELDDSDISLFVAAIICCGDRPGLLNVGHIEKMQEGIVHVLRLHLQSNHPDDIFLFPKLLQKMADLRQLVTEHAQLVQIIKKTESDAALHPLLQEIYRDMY
Protocol: (§5) Full-length cDNA clones for human PPARα and mouse PPARγ were obtained by RT-PCR from human adipose and mouse liver cRNA, respectively, cloned into plasmid vectors and verified by DNA sequencing. […] To accomplish this, the portions of the cloned sequences encoding the LBDs were amplified from the full-length clones by PCR and then subcloned into the plasmid vectors. Final clones were verified by DNA sequence analysis.
as §4

[4] = biological target: T2, PPARα; test: PPARα radioligand binding assay (SPA, GST-PPARα-LBD fusion protein); set-up: PPARγ (aa 174 to 476) and PPARα (aa 167 to 469); made in house; host or cells: E. coli BL21(pLysS); details: SPA beads
From the text: as §5, §2
as §3, with “PPARα receptor” for “PPARγ receptor”, “reaction a” for “reaction an”, “of GST-PPARα-LBD” for “of GST-PPARγ-LBD”, “beads (PharmaciaAmersham)” for “beads (PharmaciaArnersham)”, “dpm of” for “dpm”, “2(S)-(2-benzoyl-phenylamino)-3-{4-[1,1-ditritio-2-(5-methyl-2-phenyl-oxazol-4-yl)-ethoxy]-phenyl}-propionic acid or 2,3-ditritio-2(S)-methoxy-3-(4-(2-(5-methyl-2-phenyl-oxazol-4-yl)-ethoxy]-benzo[b]thiophen-7-yl}-propionic” for “2(S)-(2-benzoyl-phenylamino)-3-{4-[1,1-ditritio-2-(5-methyl-2-phenyl-oxazol-4-yl)-ethoxy]-phenyl}-propionic”

[5] = biological target: T2, PPARα; test: Luciferase transcriptional reporter gene assay, BHK21 cells transfected with pFA-PPARα-LBD; type: cell-based; details: 24 hours incubation
Protocol: as §5
Baby hamster kidney cells (BHK21 ATCC CCL10) were grown in DMEM medium containing 10% FBS at 37° C. in a 95%02:5%CO2 atmosphere. Cells were seeded in 6 well plates at a density of 10^5 Cells/well and then batch-transfected with either the pPA-PPARγ-LBD or pFA-PPARα-LBD expression plasmids plus a reporter plasmid and an expression plasmid encoding the secretable form of alkaline phosphatase (SEAP) as a normalization control. […] Following incubation of the cells for 24 hours with substances, 50 ul of the supernatant was recovered and analyzed for SEAP activity (Roche Molecular Biochemicals). […] Luminescence for both SEAP and luciferase was measured in a Packard TopCount. Luciferase activity was normalized to the SEAP control and transcriptional activation in the presence of a test substance was expressed as fold-activation over cells incubated in the absence of the substance. EC50 values were calculated using the XLfit program (ID Business Solutions Ltd. UK).

[6] = biological target: T1, PPARγ; test: PPARγ radioligand binding assay (SPA, GST-PPARγ-LBD fusion protein); details: SPA beads
From the text: Full-length cDNA clones for human PPARα and mouse PPARγ were obtained by RT-PCR from human adipose and mouse liver cRNA, respectively, cloned into plasmid vectors and verified by DNA sequencing. (With respect to cloning of PPARα cDNA, see Sher, T. et al. “cDNA doning, chromosomel mapping and functional characterization of the human peroxisome proliferator activated receptor”, Biochemistry 32(21) 5598-5604 (1993); with respect to cloning of PPARγ2 cDNA, see Tontonoy P., et al. “mPPAR gamma 2: tissue-specific regulator of an adipocyte enhancer”, Genes Dev. 8(10) 1224-34 (1994).) Bacterial and mammalian expression vectors were constructed to produce glutathione-s-transferase (GST) and Gal4 DNA binding domain proteins fused to the ligand binding domains (LBD) of PPARγ (aa 174 to 476) and PPARα (aa 167 to 469). To accomplish this, the portions of the cloned sequences encoding the LBDs were amplified from the full-length clones by PCR and then subcloned into the plasmid vectors. Final clones were verified by DNA sequence analysis. […]
PPARγ receptor binding was assayed in TKE50 (50 mM Tris-HCl, pH 8, 50 mM KCl, 2 mM EDTA, 0.1 mg/ml fatty acid-free BSA and 10 mM DTT). […] All binding assays were performed in 96 well plates and the amount of bound ligand measured on a Packard TopCount using OptiPlates (Packard). Nonspecific binding was determined in the presence of 10^−4 M unlabelled compound. […]

Row | Compound | IC50 [1] [nM] | EC50 [2] [nM] | EC50 [3] [nM] | IC50 [4] [nM] | EC50 [5] [nM] | IC50 [6] [nM]
1 | CCOC(Cc1ccc(OCc2csc(-c3ccc(C(C)C)cc3)n2)c(C)c1)C(=O)O (racemic) [Example 5, [rac]-2-Ethoxy-3-{4-[2-(4-isopropyl-phenyl)-thiazol-4-ylmethoxy]-3-methyl-phenyl}-propionic acid] | 96 | 389 | 400 | 133 | – | –
2 | CCOC(Cc1ccc(OCc2csc(-c3ccc(Cl)cc3)n2)cc1C)C(=O)O (racemic) [Example 14, [rac]-3-{4-[2-(4-chloro-phenyl)-thiazol-4-ylmethoxy]-2-methyl-phenyl}-2-ethoxy-propionic acid] | 457 | 608 | 77 | 109 | – | –
3 | CCOC(Cc1ccc(OCCc2csc(-c3ccc(C(F)(F)F)cc3)n2)c(F)c1)C(=O)O (racemic) [Example 25, [rac]-2-Ethoxy-3-(3-fluoro-4-{2-[2-(4-trifluoromethyl-phenyl)-thiazol-4-yl]-ethoxy}-phenyl)-propionic acid] | 535 | 508 | 116 | 370 | – | –
4 | CCOC(Cc1ccc(OCCCc2csc(-c3ccc(C(C)C)cc3)n2)c(F)c1)C(=O)O (racemic) [Example 43, [rac]-2-Ethoxy-3-(3-fluoro-4-{3-[2-(4-isopropyl-phenyl)-thiazol-4-yl]-propoxy}-phenyl)-propionic acid] | 52 | 543 | 2110 | 50 | – | –
5 | CCOC(Cc1ccc(OCCc2nc(-c3ccc(OC(F)(F)F)cc3)sc2C)c(C)c1)C(=O)O (racemic) [Example 60, [rac]-2-ethoxy-3-(3-methyl-4-{2-[5-methyl-2-(4-trifluoromethoxy-phenyl)-thiazol-4-yl]-ethoxy}-phenyl)-propionic acid] | 42 | 411 | 748 | 37 | – | –
6 | CCOC(Cc1ccc(OCCc2nc(-c3cc(OC)cc(OC)c3)sc2C)c(OC)c1)C(=O)O (racemic) [Example 64] | – | 281 | – | 95 | 513 | 84
7 | CCOC(Cc1ccc(OCc2csc(-c3ccc(Cl)cc3)n2)c2ccoc12)C(=O)O (racemic) [Example 95] | – | 1580 | – | 114 | 54 | 925
8 | CCOC(Cc1ccc(OCCCc2nc(-c3ccc(C(C)(C)C)cc3)sc2C)cc1C)C(=O)O (racemic) [Example 102, [rac]-3-(4-{3-[2-(4-tert-Butyl-phenyl)-5-methyl-thiazol-4-yl]-propoxy}-2-methyl-phenyl)-2-ethoxy-propionic acid] | 20 | 42 | 215 | 15 | – | –
9 | CCO[C@@H](Cc1ccc(OCc2csc(-c3cccc(Cl)c3)n2)cc1C)C(=O)O [Example 19, (2S)-3-{4-[2-(3-Chloro-phenyl)-thiazol-4-ylmethoxy]-2-methyl-phenyl}-2-ethoxy-propionic acid] | 179 | 60 | 71 | 89 | – | –
10 | CCO[C@@H](Cc1ccc(OCc2csc(-c3ccc(Cl)cc3)n2)cc1C)C(=O)O [Example 20, (2S)-3-{4-[2-(4-Chloro-phenyl)-thiazol-4-ylmethoxy]-2-methyl-phenyl}-2-ethoxy-propionic acid] | 738 | 209 | 27 | 24 | – | –
